By pIC50 is commonly meant the negative decadic logarithm of the IC50, by convention in mol/L. A high value points to a low IC50.

One series deals with T1, topoisomerase I (Mus musculus, UniProt Q04750).
T1 construct: Topoisomerase I was prepared from p388 mouse leukemia; endogenous in cells; host or cells: P388 mouse leukemia
T1 sequence (Q04750 1-767): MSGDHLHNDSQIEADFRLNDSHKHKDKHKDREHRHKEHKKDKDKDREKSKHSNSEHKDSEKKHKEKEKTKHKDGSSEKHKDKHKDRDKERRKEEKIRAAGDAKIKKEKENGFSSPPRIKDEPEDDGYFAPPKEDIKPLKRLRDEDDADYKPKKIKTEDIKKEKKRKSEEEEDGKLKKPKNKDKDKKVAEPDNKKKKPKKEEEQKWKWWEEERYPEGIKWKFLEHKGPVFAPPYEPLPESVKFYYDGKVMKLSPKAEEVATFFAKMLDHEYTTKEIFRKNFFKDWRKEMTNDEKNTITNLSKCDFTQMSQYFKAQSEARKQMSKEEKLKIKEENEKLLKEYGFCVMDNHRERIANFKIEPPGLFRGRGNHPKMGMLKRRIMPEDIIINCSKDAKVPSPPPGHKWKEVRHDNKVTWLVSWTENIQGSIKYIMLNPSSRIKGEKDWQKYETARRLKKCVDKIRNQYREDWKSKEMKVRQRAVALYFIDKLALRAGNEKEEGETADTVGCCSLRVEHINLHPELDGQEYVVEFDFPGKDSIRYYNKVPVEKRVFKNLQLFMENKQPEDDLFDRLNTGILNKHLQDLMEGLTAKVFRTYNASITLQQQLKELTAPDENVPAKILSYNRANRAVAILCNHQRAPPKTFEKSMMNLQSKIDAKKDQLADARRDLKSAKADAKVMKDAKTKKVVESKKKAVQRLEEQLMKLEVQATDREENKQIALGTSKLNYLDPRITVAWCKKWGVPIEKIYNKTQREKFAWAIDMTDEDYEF
In words: Topoisomerase I assay, relaxation of supercoiled SV40 DNA. The class given is biochemical, p388 mouse leukemia. The method, then: Topoisomerase I was prepared from p388 mouse leukemia. One unit (the minimum amount of full relaxation of 0.5 μg SV40 DNA) of topoisomerase I,
0.5 μl of the test compounds, and 0.5 μg of SV40 DNA were added sequentially to the reaction buffer. The reaction mixture (50 μl) was incubated for 10 min and 37° C. and analyzed by electrophoresis, the gel was stained with 0.05% ethydium bromide and photographed with UV light. The DNA was quantified using a densitometor. The inhibition rate of the topoisomerase activity was calculated as [formula] where Frt and Frc are ratios of relaxed DNA to total DNA treated with topoisomerase in the presence and absence of the test drug, respectively. Fr is the proportion of relaxed DNA in untreated DNA. The IC50 of each test drug was estimated from the dose-response.

The subject of a further series is nucleic acid synthesis. The note with it: background statement; cited from earlier work.
The conditions of series [1]: clinical tests in the United States; cited from earlier work.

pIC50: −log10 of the molar value.

In turn, `CC[C@@]1(O)C(=O)OCc2c1cc1n(c2=O)Cc2cc3ccccc3nc2-1` [camptohecin, camptothecin] gave a pIC50 on topoisomerase I of 4.36. In addition, the antitumor activity result with nucleic acid synthesis is “exhibit an antitumor activity”. Moreover, the “safety in clinical tests” value in series [1] is on record as “problem in view of safety”.

The values are drawn from patent publication US5637770A (priority 1991, dated 1997).
